{
  "source": "patent US7094786B2",
  "about": "“Method of treating nausea, vomiting, retching or any combination thereof” (Dynogen Pharmaceuticals, Inc., priority 2003, dated 2006)",
  "key": {"[1]": {"test_system": "cisplatin-induced retching and vomiting", "test": "Cisplatin-induced emesis in the ferret", "format": "in vivo, ferret (Mustela putariofuro)", "conditions": "for Latency: first emetic event; for Effect on latency of the first emetic response (in words): across doses tested i.p.; for Effect on number of cisplatin-induced emetic events (in words): across doses tested i.p. (ondansetron 5, 10 mg/kg; MCI-225 1, 10, 30 mg/kg); for Retches (360 min) / Vomits (360 min) / Total Events: male ferrets; for Total Events: 360 min", "procedure": "The ability of MCI-225 to reduce retching and vomiting in an accepted model of cytotoxin-induced emesis in the ferret was assessed. Specifically, the experiments described herein investigated the effect of MCI-225 on retching and vomiting induced by cisplatin. Ondansetron was used as a positive control in the model, in view of its known antiemetic activity. Adult male ferrets (Mustela putariofuro) weighing 1200–1880 g were purchased from Triple F Farms (Sayre, Pa.) and housed in individual cages at standardized conditions (12:12 h light/dark cycle and 21–23° C.). Prior to the experiments, the ferrets were allowed a 7–10 day acclimatization period to the animal facility. The ferrets were fed a carnivore diet with free access to food and water throughout the course of the study. The use of the ferret model of emesis and the drug treatment were preapproved in accordance with facility standards. A cisplatin solution was prepared by adding preheated (70° C.) saline to cisplatin powder (Sigma-Aldrich Co.) and stirring or sonicating at 40° C. until dissolved. Following administration of the cisplatin and either MCI-225, ondansetron or vehicle alone, the occurrence of retching and vomiting was monitored for a period of 6 hours. Retching was defined as the number of forceful rhythmic contractions of the abdomen occurring with the animal in characteristic posture, but not resulting in the expulsion of upper gastrointestinal tract contents (Watson et al., British Journal of Pharmacology, 115(1): 84–94 (1994)). Vomiting was defined as the forceful oral expulsion of upper gastrointestinal contents. The latency of the retching or vomiting response and the number of episodes were recorded for each animal and summarized for each experimental group (Wright et al., Infect. Immun., 68(4): 2386–9 (2000)). Following one hour of acclimation to the observation cage, ferrets received an intraperitoneal (i.p.) injection of cisplatin (5 mg/kg in 5 mL) followed in about 2 minutes by i.p. injection of a single dose of MCI-225 or ondansetron (Rudd and Naylor, Eur. J. Pharmacol., 322: 79–82 (1997)). Dose-response effects of MCI-225 dosed at 1, 10 and 30 mg/kg i.p. in a 0.5 ml/kg solution or ondansetron dosed at 5 and 10 mg/kg i.p. in a 0.5 mL/kg solution were studied. Each animal received a single-dose drug treatment. In addition, three animals received an initial dose (30 mg/kg i.p.) and a second MCI-225 injection (30 mg/kg i.p.) 180 minutes following the initial dose. Control animals were treated with cisplatin followed by vehicle alone (propanediol dosed in a 0.5 mL/kg solution). All groups were randomized."}, "[2]": {"test_system": "Monoamine Oxidase-A (MAO-A)", "conditions": "cited from earlier work"}, "[3]": {"test_system": "Monoamine Oxidase-B (MAO-B)", "conditions": "cited from earlier work"}, "[4]": {"target": "T1, 5-HT3 receptor (Mus musculus, UniProt P23979)", "T1 construct": "host or cells: N1E-115 mouse neuroblastoma cells", "T1 sequence (P23979 24-489)": "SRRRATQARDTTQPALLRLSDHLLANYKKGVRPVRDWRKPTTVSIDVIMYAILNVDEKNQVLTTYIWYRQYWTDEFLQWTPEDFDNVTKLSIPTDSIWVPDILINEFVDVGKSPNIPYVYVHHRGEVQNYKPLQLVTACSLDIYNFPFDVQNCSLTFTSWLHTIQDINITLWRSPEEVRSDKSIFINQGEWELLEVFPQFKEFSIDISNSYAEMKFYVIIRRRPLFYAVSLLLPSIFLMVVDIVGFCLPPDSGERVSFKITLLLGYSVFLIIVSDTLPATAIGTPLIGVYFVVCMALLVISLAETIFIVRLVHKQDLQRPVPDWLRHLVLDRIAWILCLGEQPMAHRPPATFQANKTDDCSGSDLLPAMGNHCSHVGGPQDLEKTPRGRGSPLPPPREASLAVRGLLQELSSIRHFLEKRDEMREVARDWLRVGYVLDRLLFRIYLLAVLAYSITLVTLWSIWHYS", "conditions": "radioligand binding; read-out: Ki, affinity for the 5-HT3 receptor; cited from earlier work"}, "[5]": {"test_system": "α1, α2, β1, β2, 5-HT1, 5-HT1A, 5-HT1c, 5-HT2, 5-HT4, 5-HT6, 5-HT7, D1, D2, Muscarinic, M1, M2, M3, Nicotonic, H1, H2, GABA-A, GABA-B, BZP, Opiate, CRF and …", "conditions": "all receptors tested other than 5-HT3; read-out: IC50, radioligand binding to additional receptors; cited from earlier work"}, "[6]": {"test_system": "muscarinic receptors", "conditions": "cited from earlier work"}, "[7]": {"conditions": "10 mg/kg i.p. single dose after cisplatin 5 mg/kg i.p."}, "[8]": {"conditions": "5 mg/kg i.p. single dose after cisplatin 5 mg/kg i.p."}},
  "data": [
    {"compound": "Cc1cc2c(-c3ccccc3F)nc(N3CCNCC3)nc2s1", "note": "[MCI-225, 4-(2-fluorophenyl)-6-methyl-2-(1-piperazinyl)thieno[2,3-d]pyrimidine]", "values": [
      {"measurement": "Latency", "setting": "[1]; 1 mg/kg i.p. single dose after cisplatin 5 mg/kg i.p.", "value": "186 ± 35", "unit": "min"},
      {"measurement": "Latency", "setting": "[1]; [7]", "value": "192 ± 57", "unit": "min"},
      {"measurement": "Latency", "setting": "[1]; 30 mg/kg b.i.d i.p. (two doses, 180-min interval) after cisplatin 5 mg/kg i.p.", "value": "360 ± 0", "unit": "min"},
      {"measurement": "Latency", "setting": "[1]; 30 mg/kg i.p. single dose after cisplatin 5 mg/kg i.p.", "value": "287 ± 38", "unit": "min"},
      {"measurement": "Effect on latency of the first emetic response (in words)", "setting": "[1]", "value": "increase in the latency of the response"},
      {"measurement": "Effect on number of cisplatin-induced emetic events (in words)", "setting": "[1]", "value": "dose-dependent reduction in the retches and vomits"},
      {"measurement": "Overall antiemetic efficacy (conclusion)", "setting": "[1]; similar dose range as ondansetron", "value": "effective at reducing retching and vomiting"},
      {"measurement": "Emetic response (in words)", "setting": "[1]; two doses of 30 mg/kg, b.i.d at a 180-min interval", "value": "eliminated"},
      {"measurement": "Inhibition of MAO-A activity", "setting": "[2]", "value": "did not inhibit"},
      {"measurement": "Inhibition of MAO-B activity", "setting": "[3]", "value": "did not inhibit"},
      {"measurement": "Ki", "setting": "[4]", "value": "< 100", "unit": "nM"},
      {"measurement": "IC50", "setting": "[5]", "value": "> 1000", "unit": "nM"},
      {"measurement": "Anticholinergic activity", "setting": "[6]", "value": "substantially no anticholinergic activity"}
    ]},
    {"compound": "Cc1nccn1CC1CCc2c(c3ccccc3n2C)C1=O", "note": "(centres unmarked) [Ondansetron, ondansetron]", "values": [
      {"measurement": "Latency", "setting": "[1]; [8]", "value": "288 ± 4", "unit": "min"},
      {"measurement": "Retches (360 min)", "setting": "[1]; [8]", "value": "11.2 ± 7.0"},
      {"measurement": "Vomits (360 min)", "setting": "[1]; [8]", "value": "0.3 ± 0.2"},
      {"measurement": "Total Events", "setting": "[1]; [8]", "value": "11.5 ± 7.2"},
      {"measurement": "Latency", "setting": "[1]; [7]", "value": "313 ± 32", "unit": "min"},
      {"measurement": "Retches (360 min)", "setting": "[1]; [7]", "value": "2.4 ± 1.6"},
      {"measurement": "Vomits (360 min)", "setting": "[1]; [7]", "value": "0.0 ± 0.0"},
      {"measurement": "Total Events", "setting": "[1]; [7]", "value": "2.4 ± 1.6"},
      {"measurement": "Effect on latency of the first emetic response (in words)", "setting": "[1]", "value": "increase in the latency of the first emetic response"},
      {"measurement": "Effect on number of cisplatin-induced emetic events (in words)", "setting": "[1]", "value": "dose-dependently reduced the number of emetic events"}
    ]}
  ]
}
